Data as given in US11261220B2, “Salmonella siiE-derived peptides for manipulation of long-lived plasma cells” (DEUTSCHES RHEUMA-FORSCHU[…], priority 2017, dated 2022).

Tests used:
[1] = tested on: B cells and IgG-secreting plasma cells in the BM; details: i.p. twice a day 5 μg for 4 days
Procedure: C57BL/6 mice were injected i.p. twice a day with 5 μg of AMD3100 for 4 days. B220+cells and IgG-secreting plasma cells were analyzed on day 4 by flow cytometry (H) and by ELISpot assay (I), respectively. n=5-6. The data are representative of at least two independent experiments. *p<0.05, **p<0.01, ***p<0.001.
To count Ig-secreting cells, MultiScreen filter plates with PVDF membrane (Merck) were activated for 1 min with 35% ethanol followed by washing and were coated with 7.2 μg/ml of goat anti-mouse Ig, F(ab′)2 fragment (Jackson ImmunoResearch) overnight at 4° C. After washing and blocking with RPMI1640/10% FCS, diluted fresh cells were added and incubated for 5 h at 37° C. Following incubation, alkaline phosphatase-conjugated anti-IgG, IgG1, IgM or IgA (Southern Biotech) was added for 1 h at 37° C. and spots were visualized with BCIP/NBT Plus substrate (Mabtech) and were counted by ELISpot reader (AID).

[2] = tested on: anti-DNA IgG-secreting plasma cells in the BM; test: Murine model of systemic lupus erythematosus, anti-DNA IgG ELISpot in BM; format: in vivo; details: NZB/VV Fl female mice 5-6 months old, i.p. 100 μg on days 0, 3, 7 and 10, ELISpot on day 11
Procedure: FIG. 15. SiiE129 peptide reduce numbers of DNA-specific IgG-secreting plasma cells in the bone marrow. […] NZB/VV Fl female mice (5-6 months old) received i.p. 100 μg peptide coding SiiE amino acid 129-168 on days 0, 3, 7 and 10 and on day 11 were analyzed for anti-DNA IgG-secreting cells in the BM by ELISpot assay. n=5-6. The data are representative of two independent experiments.
NZB/VV Fl female mice (5-6 months old) received i.p. 100 μg peptide coding SiiE amino acid 129-168 on days 0, 3, 7 and 10 and on day 11 were analyzed for anti-DNA IgG-secreting cells in the BM by ELISpot assay.

[3] = tested on: BM IgG-secreting plasma cells; test: ELISpot count of Ig-secreting cells the day after i.p. SiiE peptide; format: in vivo; details: C57BL/6 mice, i.p. 100 μg peptide, analyzed on the next day
Procedure: FIG. 5. Identification of the microbial component reducing numbers of BM IgG-secreting plasma cells. (A) Salmonella colonizes in the spleen and liver but not in the BM. The CFU of Salmonella in the spleen, liver and BM of Salmonella-infected mice on day 4 after infection was counted. The dotted line represents the limit of detection. n=3-6. […] C57BL/6 mice received 200 μl of LB medium, untreated or LPS-depleted culture supernatants from flagellin-deficient attenuated Salmonella or Escherichia coli (ΔLonΔFIhD) and on the next day (24 h later) were analyzed for IgG-secreting cells by ELISpot assay. n=8. […] Mice were infected i.p. with 200 μl of LB and LPS-depleted supernatant from flagellin-deficient attenuated Salmonella on day 41 and analyzed for IgG-secreting cells on the next day. n=6. […] C57BL/6 mice received i.p. 200 μl of LB medium and LPS-depleted supernatants from attenuated Salmonella ΔLon or ΔLonΔSiiE and on the next day were analyzed for IgG-secreting cells by ELISpot assay. n=5. […] C57BL/6 mice received i.p. 100 μg peptide coding SiiE amino acid 129-168 and on the next day were analyzed for IgG- and IgM-secreting cells in the BM and spleen. n=5. […] BM or splenic cells from C57BL/6 mice were incubated with 30 μg/ml of GST-SiiE 97-170 or GST protein, stained with anti-GST antibodies, and analyzed by flow cytometry. n=3. […] Adherent cells were counted after washing.

| Molecule | B cell numbers in the BM ([1]; B220+ cells by flow cytometry on day 4) | numbers of IgG-secreting plasma cells in the BM ([1]; ELISpot on day 4) | number of anti-DNA IgG-secreting cells in bone marrow [2] | number of anti-DNA IgG-secreting cells in bone marrow ([2]; listed as SiiE129 peptide) | numbers of BM IgG-secreting plasma cells [3] | numbers of BM IgG-secreting plasma cells ([3]; listed as peptide coding SiiE amino acid 129-168) |
| --- | --- | --- | --- | --- | --- | --- |
| c1cc(CN2CCCNCCNCCCNCC2)ccc1CN1CCCNCCNCCCNCC1 [AMD3100] | numerically reduces B cells | but not IgG-secreting plasma cells in the BM | – | – | – | – |
| KEADKAKEEAEKAKEAAEKALNEAFEVQNSSKQIEEMLQN (listed as Salmonella enterica) [SiiE 129-168] | – | – | reduces the number of Anti-DNA IgG-secreting cells in bone marrow | reduces numbers of anti-DNA IgG-secreting plasma cells in the BM | markedly reduced numbers of BM IgG-secreting plasma cells | reduces numbers of BM IgG-secreting plasma cells |
